The results in this text go back to patent publication US4335249A, “Herbicidal diphenyl ethers, sulfides, sulfoxides and sulfones” (Rohm and Haas Company, priority 1976, dated 1982).

Format in all cases: in vivo
Test [1] relates to marigold (Tagetes spp.). Briefly: Preemergence herbicidal activity, marigold. Conditions: pre-emergence, 336 h, 2 lb/A. In short, it runs like this:
(§1)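 Plants were scored as mean % killed about two weeks after treatment. Postemergence species were sprayed two weeks after germination and preemergence species immediately after sowing. The spray was an acetone/water solution at the stated lb/A rate in a 50 gal/acre carrier.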

For test [2], the system named is wild oats (Avena fatua). Description: Postemergence herbicidal activity, wild oats. The following applies: Avena fatua, post-emergence, 336 h, Post, 2 lb/A; read-out: % control, Wild oat. Summed up:
as §1

In test [3] the test system is barnyardgrass (Echinochloa crusgalli). Description: Postemergence herbicidal activity, barnyardgrass. Conditions: Echinochloa crus-galli, post-emergence, 336 h; Post, 2 lb/A. In short, it runs like this:
(§2)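 Acetone solution diluted w/ water; spray, carrier 50 gal/acre equivalent; rate in lb/A. Pre: flats sprayed right after sowing. Post: sprayed 2 wk after germination. Weed control scored.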

Test [4] deals with foxtail (Setaria spp.). Briefly: Preemergence herbicidal activity, foxtail. The following applies: Setaria, pre-emergence, 336 h; Pre, 2 lb/A. In short, it runs like this: as §1
In test [5] the test system is yellow nutsedge (Cyperus esculentus). Briefly: Preemergence herbicidal activity, yellow nutsedge. The following applies: Cyperus, pre-emergence, 336 h, 2 lb/A. In short, it runs like this:
as §1

Test [6] relates to tomato (Lycopersicon esculentum). Description: Preemergence herbicidal activity, tomato. The following applies: Solanum lycopersicum, pre-emergence, 336 h; Pre, 2 lb/A. In short, it runs like this: as §1
The test system of test [7] is downybrome (Bromus tectorum). Briefly: Preemergence herbicidal activity, downybrome. Conditions: Bromus tectorum, pre-emergence, 336 h, Pre, 2 lb/A. In short, it runs like this: as §1
In test [8] the test system is yellow nutsedge (Cyperus esculentus). Description: Postemergence herbicidal activity, yellow nutsedge. The following applies: Cyperus, post-emergence, 336 h, 2 lb/A. In short, it runs like this:
as §1

In test [9] the test system is cocklebur (Xanthium pensylvanicum). Briefly: Preemergence herbicidal activity, cocklebur. The following applies: Xanthium strumarium, pre-emergence, 336 h, 2 lb/A. Summed up: as §1
Test [10] deals with velvetleaf (Abutilon theophrasti). Briefly: Postemergence herbicidal activity, velvetleaf. Conditions: Abutilon theophrasti, post-emergence, 336 h, 2 lb/A. Summed up:
as §2

Test [11] shares this test system. Description: Preemergence herbicidal activity, velvetleaf. Conditions: Abutilon theophrasti, pre-emergence, 336 h; Pre, 2 lb/A. In short, it runs like this:
as §1

In test [12] the test system is downybrome (Bromus tectorum). Description: Postemergence herbicidal activity, downybrome. Conditions: Bromus tectorum, post-emergence, 336 h, Post, 2 lb/A. Summed up: as §1
Test [13] concerns barnyardgrass (Echinochloa crusgalli). Briefly: Preemergence herbicidal activity, barnyardgrass. Conditions: Echinochloa crus-galli, pre-emergence, 336 h; Pre, 2 lb/A. In short, it runs like this:
as §2

Test [14] deals with morningglory (Ipomoca spp.). Briefly: Postemergence herbicidal activity, morningglory. The following applies: Ipomoea, post-emergence, 336 h, 2 lb/A. In short, it runs like this:
as §1

The subject of test [15] is cocklebur (Xanthium pensylvanicum). Description: Postemergence herbicidal activity, cocklebur. The following applies: Xanthium strumarium, post-emergence, 336 h, 2 lb/A. In short, it runs like this: as §1
Test [16] relates to wild oats (Avena fatua). Description: Preemergence herbicidal activity, wild oats. Conditions: Avena fatua, pre-emergence, 336 h, Pre, 2 lb/A; read-out: % control, Wild oat. Summed up:
as §1

Test [17] concerns tomato (Lycopersicon esculentum). Briefly: Postemergence herbicidal activity, tomato. Conditions: Solanum lycopersicum, post-emergence, 336 h, Post, 2 lb/A. In short, it runs like this:
as §1

Test [18] relates to morningglory (Ipomoca spp.). Briefly: Preemergence herbicidal activity, morningglory. Conditions: Ipomoea, pre-emergence, 336 h, 2 lb/A. Summed up: as §1
Test [19] deals with marigold (Tagetes spp.). Description: Postemergence herbicidal activity, marigold. The following applies: post-emergence, 336 h, 2 lb/A. In short, it runs like this: as §1
The subject of test [20] is foxtail (Setaria spp.). Briefly: Postemergence herbicidal activity, foxtail. Conditions: Setaria, post-emergence, 336 h, Post, 2 lb/A. In short, it runs like this: as §1

For `CC(C)COC(=O)C(C)Oc1ccc(Oc2ccc(C(F)(F)F)cc2Cl)cc1` (stereo not drawn) [Example 33], the pest or weed control at 2241.7 g/ha amounted to 0% with marigold (Tagetes spp.) [1]; 100% in the test with wild oats (Avena fatua) [2]; 100% in test [3]; 100% in the test with foxtail (Setaria spp.) [4]; 0% in test [5]; 0% in test [6]. Besides, the pest or weed control at 2241.7 g/ha was 90% in test [7]; 0% in test [8]; 0% in [9]; 0% in [10]; 0% in test [11]; 100% in test [12]. The pest or weed control at 2241.7 g/ha in [13] worked out at 99%; in test [14], 0%; in test [15] it was 0%; with wild oats (Avena fatua) [16], 90%; in test [17], 0%; in test [18] it was 0%. In addition, the pest or weed control at 2241.7 g/ha in the test with marigold (Tagetes spp.) [19] worked out at 0%; with foxtail (Setaria spp.) [20], 100%.

As for `CCC(C)OC(=O)C(C)Oc1ccc(Oc2ccc(C(F)(F)F)cc2Cl)cc1` (stereo not drawn) [Example 34], the pest or weed control at 2241.7 g/ha in the test with marigold (Tagetes spp.) [1] is 0%; with wild oats (Avena fatua) [2], 100%; in test [3], 100%; in the test with foxtail (Setaria spp.) [4], 100%; in test [5], 0%; in [6] it was 0%. Besides, the pest or weed control at 2241.7 g/ha stood at 95% in test [7]; 0% in test [8]; 0% in test [9]; 0% in test [10]; 0% in [11]; 99% in test [12]. The pest or weed control at 2241.7 g/ha is 100% in test [13]; 0% in [14]; 0% in [15]; 80% with wild oats (Avena fatua) [16]; 0% in test [17]; 0% in [18]. Also, the pest or weed control at 2241.7 g/ha amounted to 0% in the test with marigold (Tagetes spp.) [19] and 100% with foxtail (Setaria spp.) [20].

Take `CC(Oc1ccc(Oc2ccc(C(F)(F)F)cc2Cl)cc1)C(=O)OC(C)(C)C` (stereo not drawn) [Example 35]: the pest or weed control at 2241.7 g/ha in the test on marigold (Tagetes spp.) [1] stood at 0%; in the test on wild oats (Avena fatua) [2], 0%; in [3], 60%; in the test with foxtail (Setaria spp.) [4], 100%; in test [5] it was 0%; in [6], 0%. For the same molecule, the pest or weed control at 2241.7 g/ha in [7], in [8], in [9], in test [10], in test [11] and in test [12] was 0% each time. Moreover, the pest or weed control at 2241.7 g/ha in [13] was determined as 99%; in [14], 0%; in test [15] it was 0%; in the test on wild oats (Avena fatua) [16], 0%; in test [17], 0%; in test [18], 0%. For the same molecule, the results for the pest or weed control at 2241.7 g/ha in the test with marigold (Tagetes spp.) [19] and in the test with foxtail (Setaria spp.) [20] were 0% and 100%, respectively.
